# In paper PMC4731763, “Naturally occurring proteinaceous nanoparticles in Coptidis Rhizoma extract act as concentration-dependent carriers that facilitate berberine absorption” (Scientific Reports, 2016):
# Read-outs that look alike come from different tables or passages of the source.
# Columns and labels:
# [1] = tested on: P-gp; conditions: cited from earlier work
# [2] = tested on: mice; conditions: mouse, in vivo
# Method: The mice (n = 20 mice per group, 10 males and 10 females) were orally administered the test materials and the reactions of the mice were recorded for 7 days. Using this method, the acute oral toxicities of the following materials were tested at the dose volume of 0.2 mL/10 g body weight (dissolved in water) and compared: (1) the Coptidis Rhizoma extract (1 or 3 g/kg); (2) the supernatant of the Coptidis Rhizoma extract (3 g/kg) after centrifugation (300,000 g, 30 min, 4 °C); (3) pure berberine (206 or 618 mg/kg, equal to the dose of berberine in the 1 and 3 g/kg extracts, respectively); (4) alkaloid extract of Coptidis Rhizoma (1259 mg/kg, equal to the dose of berberine in the 3 g/kg extract).
# [3] = Pharmacokinetics in mice: plasma berberine exposure after oral administration; format: in vivo; conditions: both sexes, Kun-Ming, mouse
# Method: A Shimadzu Prominence UFLCXR series HPLC (Shimadzu, Japan) and a Thermo Scientific TSQ Quantum Ultra mass spectrometer (Thermo Scientific, Waltham, MA, USA) equipped with an electrospray ionization (ESI) source were used. The samples were precipitated with 3 volumes of acetonitrile. Carbamazepine was used as the internal standard. After centrifugation (24,000 g, 6 min, 4 °C), the supernatant was mixed with an equal volume of water and 10-μL samples were injected into the LC-MS/MS system. The samples were eluted through a Hypersil Gold (C18) analytical column (5 μm, 100 × 2.1 mm) with a gradient of the aqueous phase (0.08% v/v formic acid and 2 mM ammonium acetate) and the acetonitrile phase (0 min, 85:15; 7 min, 32:68; 7.01 min, 85:15; 10 min, 85:15) at a flow rate of 0.3 mL/min. The ESI source was set to positive ion mode. Data acquisition was performed in the multiple reaction monitoring mode of the selective mass transition for each compound. The transitions from the precursor ions to the protonated fragment product ions were monitored: m/z 336.15 → m/z 322.28 for berberine and m/z 237.00 → m/z 194.31 for carbamazepine. The linear dynamic range for berberine in the tested biological samples was 0.5 to 500 ng/mL. […] The accuracy, precision, recovery, and stability tests all met the requirements of quantitative determination in biological samples. […]
# [4] = set-up: method as in PMID 20138204; conditions: cited from earlier work
Compound,Effect on P-gp [1],Acute oral toxicity (survival of mice) ([2]; 206 mg/kg),Acute oral toxicity (reaction or death of mice) ([2]; 618 mg/kg),"AUC(0-t) ([3]; 206 mg/kg pure berberine, read-out: Plasma berberine AUC0–24 h)","AUC(0-t) ([3]; 618 mg/kg pure berberine, read-out: Plasma berberine AUC0–4 h)",Toxicity in vivo after oral administration [4],P-gp substrate status [1]
COc1cc([C@H]2Oc3cc(-c4cc(=O)c5c(O)cc(O)cc5o4)cc(OC)c3O[C@@H]2CO)ccc1O (racemic) [5′-methoxyhydnocarpin],inhibitory effects on P-gp,,,,,,
"COc1ccc2cc3[n+](cc2c1OC)CCc1cc2c(cc1-3)OCO2 [pure berberine, berberine]",,survived,did not show toxic reactions,0.722 µg·h/mL,0.0221 µg·h/mL,weak toxicity,P-gp substrate
